Test results reported in ChEMBL document CHEMBL1926539, “Discovery of novel selective inhibitors of Staphylococcus aureus β-ketoacyl acyl carrier protein synthase III” (Eur J Med Chem, 2012).
Converted amounts (≈) assume the structure as drawn.

Experiments:
Escherichia coli = assay: Antimicrobial activity against Escherichia coli KCTC 1682 after 20 hrs by 2 fold serial broth dilution method; format: functional; conditions: KCTC 1682, 20 h
Enterococcus faecalis = assay: Antimicrobial activity against Enterococcus faecalis KCTC 2011 after 20 hrs by 2 fold serial broth dilution method; format: functional; conditions: KCTC 2011, 20 h
Enterococcus faecium = assay: Antimicrobial activity against vancomycin-resistant Enterococcus faecium clinical isolate after 20 hrs by 2 fold serial broth dilution method; format: functional
Staphylococcus aureus [1] = assay: Antimicrobial activity against Staphylococcus aureus KCTC 1621 after 20 hrs by 2 fold serial broth dilution method; format: functional; conditions: KCTC 1621, 20 h
Staphylococcus aureus [2] = assay: Antimicrobial activity against methicillin-resistant Staphylococcus aureus CCARM 3114 after 20 hrs by 2 fold serial broth dilution method; format: functional; conditions: CCARM 3114, 20 h
[3] = Inhibition of Staphylococcus aureus recombinant GST-tagged KAS3 expressed in Escherichia coli (DE3) at 1:10 protein to drug ratio by fluorescence quenching analysis
[4] = Cytotoxicity against mouse NIH/3T3 cells assessed as cell survival at 100 nM after 24 hrs by MTT assay; format: cell-based, NIH3T3; conditions: read-out: Activity
NIH3T3 [5] = assay: Cytotoxicity against mouse NIH/3T3 cells after 24 hrs by MTT assay; format: cell-based; conditions: NIH3T3, 24 h
NIH3T3 [6] = assay: Cytotoxicity against mouse NIH/3T3 assessed as cell survival at MIC after 24 hrs by MTT assay; format: cell-based; conditions: nih3t3, 24 h

Cc1nc(CC(=O)c2c(C)cc(O)cc2O)cs1
MIC (Escherichia coli): > 512 µg/mL
MIC (Enterococcus faecalis): > 512 µg/mL
MIC (Enterococcus faecium): > 512 µg/mL
MIC (Staphylococcus aureus [1]): > 512 µg/mL
MIC (Staphylococcus aureus [2]): > 512 µg/mL
Kd [3]: > 1000 µM

C=C/C(C)=C/[C@@]1(C)SC(=O)C(C)=C1O [THIOLACTOMYCIN]
MIC (Enterococcus faecium): 128 µg/mL (≈ 609 µM)
Kd [3]: 55.4 µM
viability at 24 h, 0.1 µM [4]: 85%

O=C(N/N=C/c1ccc(O)c(O)c1O)c1ccc(Cl)cc1Cl
MIC (Escherichia coli): 64 µg/mL (≈ 188 µM)
MIC (Enterococcus faecalis): 32 µg/mL (≈ 93.8 µM)
MIC (Enterococcus faecium): 32 µg/mL (≈ 93.8 µM)
MIC (Staphylococcus aureus [1]): 4 µg/mL (≈ 11.7 µM)
MIC (Staphylococcus aureus [2]): 4 µg/mL (≈ 11.7 µM)
Kd [3]: 0.0072 µM
IC50 (NIH3T3 [5]): 10.9 µM
Activity (NIH3T3 [6]): Non-toxic

Oc1ccc(/C=N/Nc2ccc(C(F)(F)F)cn2)c(O)c1
MIC (Escherichia coli): 512 µg/mL (≈ 1720 µM)
MIC (Enterococcus faecalis): 64 µg/mL (≈ 215 µM)
MIC (Enterococcus faecium): 32 µg/mL (≈ 108 µM)
MIC (Staphylococcus aureus [1]): 2 µg/mL (≈ 6.73 µM)
MIC (Staphylococcus aureus [2]): 4 µg/mL (≈ 13.5 µM)
Kd [3]: 0.0008 µM
viability at 24 h, 0.1 µM [4]: 67%

CCCCCC12CCC(O)(CC1)CC2O (stereo not given)
MIC (Escherichia coli): > 512 µg/mL
MIC (Enterococcus faecalis): > 512 µg/mL
MIC (Enterococcus faecium): > 512 µg/mL
MIC (Staphylococcus aureus [1]): > 512 µg/mL
MIC (Staphylococcus aureus [2]): > 512 µg/mL
Kd [3]: > 1000 µM

Nc1ccc(NC(=O)NC2CCCCC2)cc1[N+](=O)[O-]
MIC (Escherichia coli): > 512 µg/mL
MIC (Enterococcus faecalis): 128 µg/mL (≈ 460 µM)
MIC (Enterococcus faecium): 256 µg/mL (≈ 920 µM)
MIC (Staphylococcus aureus [1]): > 512 µg/mL
MIC (Staphylococcus aureus [2]): > 512 µg/mL
Kd [3]: 649 µM

Cc1nc2ccccc2c(=O)n1/N=C/c1ccc(O)cc1O
MIC (Escherichia coli): > 512 µg/mL
MIC (Enterococcus faecalis): > 512 µg/mL
MIC (Enterococcus faecium): > 512 µg/mL
MIC (Staphylococcus aureus [1]): > 512 µg/mL
MIC (Staphylococcus aureus [2]): > 512 µg/mL
Kd [3]: 0.0009 µM

CCOC(=O)/C(C#N)=C/c1ccc(O)cc1O
MIC (Escherichia coli): > 512 µg/mL
MIC (Enterococcus faecalis): 256 µg/mL (≈ 1100 µM)
MIC (Enterococcus faecium): > 512 µg/mL
MIC (Staphylococcus aureus [1]): > 512 µg/mL
MIC (Staphylococcus aureus [2]): 256 µg/mL (≈ 1100 µM)
Kd [3]: 44 µM

OC[C@@H]1O[C@H](Oc2cccc(Cl)c2)[C@H](O)[C@H](O)[C@H]1O
MIC (Escherichia coli): > 512 µg/mL
MIC (Enterococcus faecalis): > 512 µg/mL
MIC (Enterococcus faecium): 256 µg/mL (≈ 881 µM)
MIC (Staphylococcus aureus [1]): > 512 µg/mL
MIC (Staphylococcus aureus [2]): > 512 µg/mL
Kd [3]: 0.36 µM

Oc1ccc(/C=N/c2ccc(Cl)cc2Cl)c(O)c1
MIC (Escherichia coli): 64 µg/mL (≈ 227 µM)
MIC (Enterococcus faecalis): > 512 µg/mL
MIC (Enterococcus faecium): > 512 µg/mL
MIC (Staphylococcus aureus [1]): 128 µg/mL (≈ 454 µM)
MIC (Staphylococcus aureus [2]): 128 µg/mL (≈ 454 µM)
Kd [3]: 0.72 µM

Oc1ccc(/C=N/c2cc(Cl)cc(Cl)c2)c(O)c1
MIC (Escherichia coli): 64 µg/mL (≈ 227 µM)
MIC (Enterococcus faecalis): 512 µg/mL (≈ 1810 µM)
MIC (Enterococcus faecium): > 512 µg/mL
MIC (Staphylococcus aureus [1]): 64 µg/mL (≈ 227 µM)
MIC (Staphylococcus aureus [2]): 128 µg/mL (≈ 454 µM)
Kd [3]: 0.61 µM

Oc1ccc(/C=N/Nc2nccnc2Cl)c(O)c1
MIC (Escherichia coli): > 512 µg/mL
MIC (Enterococcus faecalis): > 512 µg/mL
MIC (Enterococcus faecium): 32 µg/mL (≈ 121 µM)
MIC (Staphylococcus aureus [1]): 1 µg/mL (≈ 3.78 µM)
MIC (Staphylococcus aureus [2]): 1 µg/mL (≈ 3.78 µM)
Kd [3]: 0.0003 µM
IC50 (NIH3T3 [5]): 10.3 µM
Activity (NIH3T3 [6]): Non-toxic

Cc1cccc(NC(=O)CC2SC(=O)NC2=O)c1 (stereo not given)
MIC (Escherichia coli): > 512 µg/mL
MIC (Enterococcus faecalis): > 512 µg/mL
MIC (Enterococcus faecium): > 512 µg/mL
MIC (Staphylococcus aureus [1]): > 512 µg/mL
MIC (Staphylococcus aureus [2]): > 512 µg/mL
Kd [3]: > 1000 µM

O=[N+]([O-])c1ccccc1N/N=C/c1ccc(O)c(O)c1
MIC (Escherichia coli): > 512 µg/mL
MIC (Enterococcus faecalis): 256 µg/mL (≈ 937 µM)
MIC (Enterococcus faecium): 256 µg/mL (≈ 937 µM)
MIC (Staphylococcus aureus [1]): > 512 µg/mL
MIC (Staphylococcus aureus [2]): > 512 µg/mL
Kd [3]: 3.18 µM

COc1ccccc1NC(=O)c1nc[nH]n1
MIC (Escherichia coli): > 512 µg/mL
MIC (Enterococcus faecalis): > 512 µg/mL
MIC (Enterococcus faecium): > 512 µg/mL
MIC (Staphylococcus aureus [1]): > 512 µg/mL
MIC (Staphylococcus aureus [2]): > 512 µg/mL
Kd [3]: 34.1 µM

NC(=O)C1(C(N)=O)OC1c1ccc(Cl)c(Cl)c1 (stereo not given)
MIC (Escherichia coli): 256 µg/mL (≈ 931 µM)
MIC (Enterococcus faecalis): 256 µg/mL (≈ 931 µM)
MIC (Enterococcus faecium): 32 µg/mL (≈ 116 µM)
MIC (Staphylococcus aureus [1]): 256 µg/mL (≈ 931 µM)
MIC (Staphylococcus aureus [2]): 256 µg/mL (≈ 931 µM)
Kd [3]: > 1000 µM

Cc1n[nH]c(C)c1CCC(=O)N/N=C/c1ccc(O)cc1O
MIC (Escherichia coli): 256 µg/mL (≈ 847 µM)
MIC (Enterococcus faecalis): > 512 µg/mL
MIC (Enterococcus faecium): > 512 µg/mL
MIC (Staphylococcus aureus [1]): 128 µg/mL (≈ 423 µM)
MIC (Staphylococcus aureus [2]): 128 µg/mL (≈ 423 µM)
Kd [3]: 0.23 µM

CCOC(=O)N/N=C/c1ccc(O)cc1O
MIC (Escherichia coli): > 512 µg/mL
MIC (Enterococcus faecalis): > 512 µg/mL
MIC (Enterococcus faecium): 256 µg/mL (≈ 1140 µM)
MIC (Staphylococcus aureus [1]): 256 µg/mL (≈ 1140 µM)
MIC (Staphylococcus aureus [2]): 512 µg/mL (≈ 2280 µM)
Kd [3]: 1.48 µM
